# Read-outs that look alike come from different tables or passages of the source.
# Experiments:
# human BACE1 [1] = target: T1, human BACE1 (Homo sapiens, UniProt P56817); experiment: BACE1 binding assay (SPA-based, radioligand displacement); set-up: biotin (biotinylated form); made in house; host or cells: Freestyle HEK293 cells; details: pH 4.5, 10 nM radioligand, 6 nM human BACE1, read-out: BACE1 binding affinity
# Method: The binding assay was performed as SPA-based assay using a biotinylated form of human BACE1 recombinantly expressed and subsequently purified from Freestyle HEK293 cells. The binding assay was run in a 50 mM sodium acetate buffer, pH 4.5 containing 50 mM NaCl and 0.03% Tween-20 in white clear bottom 384 plates (Corning #3653). 10 nM (final concentration) radioligand ([^3H]-N-((1S,2R)-1-benzyl-3-cyclopropylamino-2-hydroxy-propyl)-5-(methanesulfonyl-methyl-amino)-N-((R)-1-phenyl-ethyl)-isophthalamide) (TRQ11569 purchased from GE Healthcare) was mixed with test compound at a given concentration, 6 nM (final concentration) human BACE1 and 25 μg Streptavidin coated PVT core SPA beads (RPNQ0007, GE Healthcare Life Sciences) in a total volume of 40 μl. Several concentrations of each test compound were tested in the assay for IC50 determination. The plates were incubated for one hour at room temperature and counted in a WaIlac Trilux counter. […] For each test compound, a IC50 value (the concentration mediating 50% inhibition of the specific binding of the radioligand) was determined from concentration-response curve and used to calculate the Ki from the equation Ki=IC50/(1+L/Kd), where L and Kd are the final concentration of the radioligand used in the assay and the dissociation constant of the radioligand, respectively. The Kd of the radioligand was determined from saturation binding experiments.
# P-gp (MDR1) = experiment: MDCK-MDR1 assay (permeability, efflux ratio); format: in vitro ADME; details: dog
# Method: The permeability of the test compounds was assessed in MDCK-MDR1 cells that were cultured to confluency (4-6 days) in a 96 transwell plate. Test compounds were diluted with the transport buffer (HBSS+1% BSA) to a concentration of 0.5 μM and applied to the apical or basolateral side of the cell monolayer. Permeation of the test compounds from A to B direction or B to A direction was determined in triplicate over a 60-minute incubation time at 37° C. and 5% CO2 with a relative humidity of 95%. Test compounds were quantified by LC-MS/MS analysis based on the peaks area ratios of analyte/IS in both the receiver and donor wells of the transwell plate.
# The apparent permeability coefficient Papp (cm/s) was calculated using the equation: Papp=(dCr/dt)×Vr/(A×C0)
# Where dCr/dt is the cumulative concentration of compound in the receiver chamber as a function of time (μM/s); Vr is the solution volume in the receiver chamber (0.05 mL on the apical side; 0.25 mL on the basolateral side); A is the surface area for the transport, i.e. 0.0804 cm^2 for the area of the monolayer; C0 is the initial concentration in the donor chamber (μM).
# human BACE1 [2] = target: T1, human BACE1; experiment: BACE1 efficacy assay (FRET-based, commercial BACE1 kit); format: biochemical; set-up: purchased Life Technologies P2985; details: test compound at 10 μM
# Method: The efficacy assay was performed as a FRET-based assay using a commercially available BACE1 kit (Life Technologies, P2985). 2 μl test compound at 10 μM (final concentration) and 15 μl BACE1 enzyme from the kit (final concentration 3 nM) were preincubated for 15 minutes at room temperature before addition of 15 μl of substrate from the kit (250 nM final concentration) and incubated for additional 90 minutes at room temperature. The assay plate was subsequently read in a Pherastar (Ex540/Em590).
# [3] = Bioanalysis of brain and plasma samples (exposure, UPLC-MS/MS); format: in vivo, rat; details: male, Sprague Dawley, po, 3 hours post dose; for Kp at 3 h: brain/plasma, rat, read-out: Brain/Plasma ratio
# Method: Young adult Male Sprague Dawley rats of approximately 250 g weight were purchased from Charles River and received 0-30 mg/kg of vehicle (10% HP betaCD+1M MeSO4, pH 2.5) or test compounds (dissolved in vehicle) only by oral gavage (p.o). The compounds are dosed at a volume of 5 ml/kg. Cohorts of 5-10 animals were established for each treatment condition.
# At T=180 minutes after initial dosing the animals were stunned and decapitated with a guillotine. Trunk-blood was sampled in EDTA coated tubes after decapitation of the animal. The blood was centrifuged at 2200 G at 4° C. for 15 minutes and the plasma was collected and frozen at −80° C. The blood was aliquoted for Aβ ELISA and pharmacokinetic analysis. Immediately following sacrifice, the brain was extracted and split into 2 halves. The right hemibrains were snap frozen on dry ice and stored at −80° C. The left half was dissected; with the front forebrain taken for Aβ ELISA and the remainder used for DMPK analysis. These samples were also snap frozen on dry ice and stored at −80° C. until use for analysis.
# TC (test compound) was determined in plasma and brain homogenate using UltraPerformance LC® (U PLC®) chromatography followed by tandem-MS (MS/MS) detection.
# Brain homogenate was prepared by homogenizing the brain 1:4 (v/v) with water:2-propanol:DMSO (50:30:20 v/v/v) followed by centrifugation and collection of the supernatant. Calibration standards and QC samples were prepared using a Hamilton robot. 150 μL of ISTD in acetonitrile (1 ng/mL ISTD) was added to 25 μL of calibration standards, QC samples and test samples (plasma and brain homogenate) using a Biomek robot. After centrifugation (6200 g, 4° C., 20 min) 100 μL supernatant from each sample was transferred to a new plate and mixed with 100 μL water with 0.1% formic acid using a Biomek robot (method file InVivo transfer). After a quick centrifugation (6200 g, 4° C., 5 min) the samples were placed in the auto-sampler.
# MS/MS detection was done with an Applied Biosystems Sciex API 4000 instrument in positive-ion electrospray ionisation mode. TC and ISDD were detected at a parent>daughter mass to charge ratio (m/z). Nitrogen was used for the nebulizer and collision gases. The peak area correlated linearly with the plasma and brain concentration of the analytes in the range of 1.00-1000 ng/mL plasma and 5.00-5000 ng/g brain (corrected for dilution). If the plasma/brain sample drug concentration was above 1000 ng/mL or 5000 ng/g, the sample was diluted appropriately in blank plasma/blank brain homogenate before analysis.
# Compound 1 was administered at doses of 10 mg/kg p.o. and 30 mg/kg p.o. and brain and plasma samples were collected at 3 hours post dose and the following exposures were measured as described above.
# [4] = rat brain, 10 mg/kg p.o., read-out: Exp (ng/g), brain
# [5] = rat brain, 30 mg/kg p.o., read-out: Exp (ng/g), brain
# [6] = rat plasma, 10 mg/kg p.o., read-out: Exp (ng/g), plasma
# [7] = rat plasma, 30 mg/kg p.o., read-out: Exp (ng/g), plasma
# T1 sequence (P56817 46-501): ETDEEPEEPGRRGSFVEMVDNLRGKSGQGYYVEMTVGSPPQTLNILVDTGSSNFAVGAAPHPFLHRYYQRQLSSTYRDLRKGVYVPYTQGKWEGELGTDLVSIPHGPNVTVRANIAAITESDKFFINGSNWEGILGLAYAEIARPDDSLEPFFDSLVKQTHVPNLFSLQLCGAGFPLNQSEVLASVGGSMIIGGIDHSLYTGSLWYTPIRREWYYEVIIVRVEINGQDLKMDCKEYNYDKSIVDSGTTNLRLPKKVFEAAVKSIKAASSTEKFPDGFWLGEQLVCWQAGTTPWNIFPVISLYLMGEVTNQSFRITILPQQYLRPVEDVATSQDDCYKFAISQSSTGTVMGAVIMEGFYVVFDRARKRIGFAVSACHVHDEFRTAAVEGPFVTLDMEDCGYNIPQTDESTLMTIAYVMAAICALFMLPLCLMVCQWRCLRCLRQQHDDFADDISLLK
SMILES,Ki (human BACE1 [1]) [nM],"efflux ratio at 60 min, 0.5 µM (P-gp (MDR1))",inhibition at 10 µM (human BACE1 [2]) [%],Kp at 3 h ([3]; 10 mg/kg p.o.),Kp at 3 h ([3]; 30 mg/kg p.o.),"concentration at 3 h [3, 4] [ng/g]","concentration at 3 h [3, 5] [ng/g]","concentration at 3 h [3, 6] [ng/g]","concentration at 3 h [3, 7] [ng/g]"
C[C@@]1(c2cc(NC(=O)c3cnc(C(F)F)cn3)ccc2F)CC[C@@](F)(CF)C(N)=N1 [Compound 11],55,1.89,103,2.1,2.3,416,1350,195,590
"COc1cnc(C(=O)Nc2ccc(F)c([C@]3(C)CC[C@@](F)(CF)C(N)=N3)c2)cn1 [Compound 5, N-(3-((2S,5S)-6-Amino-5-fluoro-5-(fluoromethyl)-2-methyl-2,3,4,5-tetrahydropyridin-2-yl)-4-fluorophenyl)-5-methoxypyrazine-2-carboxamide]",24,1.07,103,1.95,2.74,536,1610,275,587
"C[C@@]1(c2cc(NC(=O)c3ccc(F)cn3)ccc2F)CC[C@@](F)(CF)C(N)=N1 [Compound 13, N-(3-((2S,5S)-6-Amino-5-fluoro-5-(fluoromethyl)-2-methyl-2,3,4,5-tetrahydropyridin-2-yl)-4-fluorophenyl)-5-fluoropicolinamide]",40,1.5,100,1.25,1.59,588,1590,469,1000

# Reference: patent US10011596B2, “2-amino-3-fluoro-3-(fluoromethyl)-6-methyl-6-phenyl-3,4,5,6-tetrahydropyridines as BACE1 inhibitors” (H. Lundbeck A/S, priority 2015, dated 2018)
